# Results reported in ChEMBL document CHEMBL1201862, “PubChem BioAssay data set” (2004).
# Active and inactive are the calls of the source.
# Target: Dual specificity mitogen-activated protein kinase kinase 1 (Homo sapiens, UniProt Q02750)
# Assay: Navigating the Kinome. Panel member name: MAP2K1
# Assay type: functional
# Chain of Dual specificity mitogen-activated protein kinase kinase 1 (Q02750 whole entry): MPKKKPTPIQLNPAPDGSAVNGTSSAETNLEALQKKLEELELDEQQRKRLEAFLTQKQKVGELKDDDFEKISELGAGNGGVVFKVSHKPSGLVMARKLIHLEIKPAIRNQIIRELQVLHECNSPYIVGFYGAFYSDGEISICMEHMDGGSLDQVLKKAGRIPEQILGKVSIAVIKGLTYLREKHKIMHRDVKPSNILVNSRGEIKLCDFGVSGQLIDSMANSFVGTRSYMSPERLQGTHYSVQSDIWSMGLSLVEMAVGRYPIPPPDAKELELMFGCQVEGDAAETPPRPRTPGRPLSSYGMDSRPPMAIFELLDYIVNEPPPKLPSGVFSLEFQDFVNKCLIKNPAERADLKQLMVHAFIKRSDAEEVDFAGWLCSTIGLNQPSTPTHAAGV
row,Ki,Structure (SMILES)
1,> 3.16 µM (inactive),Cc1ccc(C)c(NC(=O)c2cc(-c3ccco3)nc3ccccc23)c1
2,> 3.16 µM (inactive),COc1ccc(C2=NNc3cccc4c(OC)ccc2c34)cc1OC

row,Structure (SMILES),Ki
1,CN1CCC(c2c(O)cc(O)c3c(=O)cc(-c4ccccc4Cl)oc23)C(O)C1 (configuration not stated),> 3.16 µM (inactive)

# Target: Focal adhesion kinase 1 (Homo sapiens, UniProt Q05397);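 note: measured as one member of a kinome panel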
# Assay type: functional
# Chain of Focal adhesion kinase 1 (Q05397 whole entry): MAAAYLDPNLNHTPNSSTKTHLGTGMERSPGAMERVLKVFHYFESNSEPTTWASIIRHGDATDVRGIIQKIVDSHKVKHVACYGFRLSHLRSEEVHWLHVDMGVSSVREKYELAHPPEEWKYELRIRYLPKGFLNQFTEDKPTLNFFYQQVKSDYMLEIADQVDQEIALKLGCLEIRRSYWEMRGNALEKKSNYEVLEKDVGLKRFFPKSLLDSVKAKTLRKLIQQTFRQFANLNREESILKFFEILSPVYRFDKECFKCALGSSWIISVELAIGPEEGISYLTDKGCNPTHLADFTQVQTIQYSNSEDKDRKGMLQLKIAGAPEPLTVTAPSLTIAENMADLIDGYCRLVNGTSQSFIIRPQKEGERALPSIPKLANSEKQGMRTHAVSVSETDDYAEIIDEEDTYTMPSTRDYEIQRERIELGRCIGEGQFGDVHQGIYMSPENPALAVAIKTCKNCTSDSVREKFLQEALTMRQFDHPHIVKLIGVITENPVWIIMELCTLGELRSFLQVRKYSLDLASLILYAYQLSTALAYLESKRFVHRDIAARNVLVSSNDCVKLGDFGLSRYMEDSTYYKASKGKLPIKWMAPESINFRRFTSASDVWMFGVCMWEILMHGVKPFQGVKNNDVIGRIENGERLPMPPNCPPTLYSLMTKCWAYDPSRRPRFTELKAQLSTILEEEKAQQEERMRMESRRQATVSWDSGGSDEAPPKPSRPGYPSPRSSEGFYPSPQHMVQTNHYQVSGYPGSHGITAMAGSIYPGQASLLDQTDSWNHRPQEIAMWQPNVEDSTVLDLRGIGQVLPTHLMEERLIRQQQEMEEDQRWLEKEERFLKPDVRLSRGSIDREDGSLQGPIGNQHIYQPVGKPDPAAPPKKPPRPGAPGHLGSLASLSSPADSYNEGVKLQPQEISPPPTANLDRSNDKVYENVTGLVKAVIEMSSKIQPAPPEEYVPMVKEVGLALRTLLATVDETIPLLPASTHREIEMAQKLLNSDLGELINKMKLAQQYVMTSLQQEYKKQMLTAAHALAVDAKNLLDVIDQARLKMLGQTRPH
row,Ki,Structure (SMILES)
1,3.16 µM (active),Cc1ccc(C)c(NC(=O)c2cc(-c3ccco3)nc3ccccc23)c1
2,0.794 µM (active),COc1ccc(C2=NNc3cccc4c(OC)ccc2c34)cc1OC

row,Structure (SMILES),Ki
1,CN1CCC(c2c(O)cc(O)c3c(=O)cc(-c4ccccc4Cl)oc23)C(O)C1 (configuration not stated),> 3.98 µM (inactive)

# Target: T1, Tyrosine-protein kinase JAK3 (Homo sapiens, UniProt P52333)
# T1 sequence (P52333 whole entry): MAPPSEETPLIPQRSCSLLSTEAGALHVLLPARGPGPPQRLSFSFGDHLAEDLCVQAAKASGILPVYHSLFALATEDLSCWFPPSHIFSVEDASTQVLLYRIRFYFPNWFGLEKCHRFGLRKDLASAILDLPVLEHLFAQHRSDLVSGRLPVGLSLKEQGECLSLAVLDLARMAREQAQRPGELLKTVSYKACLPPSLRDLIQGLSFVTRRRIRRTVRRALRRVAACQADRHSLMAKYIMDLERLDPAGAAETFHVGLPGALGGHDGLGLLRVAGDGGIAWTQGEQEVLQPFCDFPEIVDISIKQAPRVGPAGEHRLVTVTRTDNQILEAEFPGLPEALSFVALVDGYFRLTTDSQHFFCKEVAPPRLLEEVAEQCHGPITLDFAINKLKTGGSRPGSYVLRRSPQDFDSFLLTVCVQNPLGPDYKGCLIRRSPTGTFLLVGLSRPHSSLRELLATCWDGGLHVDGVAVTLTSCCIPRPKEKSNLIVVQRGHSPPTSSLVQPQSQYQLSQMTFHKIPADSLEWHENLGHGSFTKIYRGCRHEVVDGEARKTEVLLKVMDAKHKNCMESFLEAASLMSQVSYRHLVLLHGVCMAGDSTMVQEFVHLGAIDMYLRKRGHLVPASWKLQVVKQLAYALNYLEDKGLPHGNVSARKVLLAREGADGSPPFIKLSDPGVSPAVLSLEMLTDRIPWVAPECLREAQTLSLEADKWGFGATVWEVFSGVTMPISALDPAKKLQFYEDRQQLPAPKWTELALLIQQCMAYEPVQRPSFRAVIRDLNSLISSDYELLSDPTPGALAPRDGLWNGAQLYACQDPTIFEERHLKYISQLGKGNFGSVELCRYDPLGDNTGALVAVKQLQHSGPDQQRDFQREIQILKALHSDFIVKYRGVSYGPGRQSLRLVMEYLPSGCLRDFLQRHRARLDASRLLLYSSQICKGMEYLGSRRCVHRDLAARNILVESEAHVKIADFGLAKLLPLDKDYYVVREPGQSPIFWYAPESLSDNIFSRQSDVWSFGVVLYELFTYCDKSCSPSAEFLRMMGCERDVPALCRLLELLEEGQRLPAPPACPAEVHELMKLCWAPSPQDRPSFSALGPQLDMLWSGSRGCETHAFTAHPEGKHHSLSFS
# Assay type: functional
row,Ki,Structure (SMILES)
1,> 5.01 µM (inactive),Cc1ccc(C)c(NC(=O)c2cc(-c3ccco3)nc3ccccc23)c1
2,0.251 µM (active),COc1ccc(C2=NNc3cccc4c(OC)ccc2c34)cc1OC

row,Structure (SMILES),Ki
1,CN1CCC(c2c(O)cc(O)c3c(=O)cc(-c4ccccc4Cl)oc23)C(O)C1 (configuration not stated),> 3.98 µM (inactive)

# Target: T2, Serine/threonine-protein kinase D3 (Homo sapiens, UniProt O94806);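 note: determined within a kinase panel screen, with PRKCN as the panel member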
# T2 sequence (O94806 whole entry): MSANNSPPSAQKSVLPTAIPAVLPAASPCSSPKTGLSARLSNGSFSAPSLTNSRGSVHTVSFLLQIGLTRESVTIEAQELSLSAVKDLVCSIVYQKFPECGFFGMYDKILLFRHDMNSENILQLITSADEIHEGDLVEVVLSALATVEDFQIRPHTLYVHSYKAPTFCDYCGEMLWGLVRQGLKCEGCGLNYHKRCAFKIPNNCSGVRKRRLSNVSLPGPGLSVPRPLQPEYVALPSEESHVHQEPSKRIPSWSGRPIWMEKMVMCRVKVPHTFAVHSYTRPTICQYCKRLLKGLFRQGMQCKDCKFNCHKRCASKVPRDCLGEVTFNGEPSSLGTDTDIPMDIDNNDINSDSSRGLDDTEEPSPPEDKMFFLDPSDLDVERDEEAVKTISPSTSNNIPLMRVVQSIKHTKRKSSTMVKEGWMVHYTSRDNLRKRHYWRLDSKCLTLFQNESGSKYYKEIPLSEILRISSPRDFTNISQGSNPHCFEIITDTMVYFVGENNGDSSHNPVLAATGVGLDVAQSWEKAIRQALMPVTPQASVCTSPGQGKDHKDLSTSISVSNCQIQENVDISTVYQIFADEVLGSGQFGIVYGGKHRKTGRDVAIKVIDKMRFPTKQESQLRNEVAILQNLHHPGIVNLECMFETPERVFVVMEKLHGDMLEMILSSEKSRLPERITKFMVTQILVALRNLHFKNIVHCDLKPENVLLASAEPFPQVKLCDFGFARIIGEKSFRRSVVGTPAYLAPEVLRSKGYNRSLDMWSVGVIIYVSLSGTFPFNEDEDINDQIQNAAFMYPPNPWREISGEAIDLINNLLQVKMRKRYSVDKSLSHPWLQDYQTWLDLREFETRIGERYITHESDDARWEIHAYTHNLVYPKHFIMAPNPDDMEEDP
# Assay type: functional
row,Ki,Structure (SMILES)
1,1.58 µM (active),Cc1ccc(C)c(NC(=O)c2cc(-c3ccco3)nc3ccccc23)c1
2,0.398 µM (active),COc1ccc(C2=NNc3cccc4c(OC)ccc2c34)cc1OC

row,Structure (SMILES),Ki
1,CN1CCC(c2c(O)cc(O)c3c(=O)cc(-c4ccccc4Cl)oc23)C(O)C1 (configuration not stated),0.316 µM (active)

# Target: Tyrosine-protein kinase Fyn (Homo sapiens, UniProt P06241)
# Assay type: functional
# Chain of Tyrosine-protein kinase Fyn (P06241 whole entry): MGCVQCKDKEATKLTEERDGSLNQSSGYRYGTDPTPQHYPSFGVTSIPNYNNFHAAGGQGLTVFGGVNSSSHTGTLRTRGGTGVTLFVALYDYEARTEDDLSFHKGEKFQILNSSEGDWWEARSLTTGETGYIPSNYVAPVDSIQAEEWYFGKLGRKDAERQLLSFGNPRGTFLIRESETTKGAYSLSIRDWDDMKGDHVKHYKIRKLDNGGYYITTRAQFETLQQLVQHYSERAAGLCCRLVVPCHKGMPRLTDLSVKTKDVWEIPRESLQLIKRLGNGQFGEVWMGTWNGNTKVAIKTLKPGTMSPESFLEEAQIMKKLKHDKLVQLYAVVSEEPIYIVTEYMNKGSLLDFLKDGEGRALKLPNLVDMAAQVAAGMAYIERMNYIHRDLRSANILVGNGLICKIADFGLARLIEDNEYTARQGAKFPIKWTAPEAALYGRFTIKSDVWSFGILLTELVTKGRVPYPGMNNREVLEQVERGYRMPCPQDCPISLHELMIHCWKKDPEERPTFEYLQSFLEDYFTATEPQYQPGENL
row,Ki,Structure (SMILES)
1,> 6.31 µM (inactive),Cc1ccc(C)c(NC(=O)c2cc(-c3ccco3)nc3ccccc23)c1
2,> 6.31 µM (inactive),COc1ccc(C2=NNc3cccc4c(OC)ccc2c34)cc1OC

row,Structure (SMILES),Ki
1,CN1CCC(c2c(O)cc(O)c3c(=O)cc(-c4ccccc4Cl)oc23)C(O)C1 (configuration not stated),> 3.16 µM (inactive)

# Target: Macrophage-stimulating protein receptor (Homo sapiens, UniProt Q04912)
# Assay: Navigating the Kinome. Panel member name: MST1R
# Assay type: functional
# Chain of Macrophage-stimulating protein receptor (Q04912 25-304 limits assumed): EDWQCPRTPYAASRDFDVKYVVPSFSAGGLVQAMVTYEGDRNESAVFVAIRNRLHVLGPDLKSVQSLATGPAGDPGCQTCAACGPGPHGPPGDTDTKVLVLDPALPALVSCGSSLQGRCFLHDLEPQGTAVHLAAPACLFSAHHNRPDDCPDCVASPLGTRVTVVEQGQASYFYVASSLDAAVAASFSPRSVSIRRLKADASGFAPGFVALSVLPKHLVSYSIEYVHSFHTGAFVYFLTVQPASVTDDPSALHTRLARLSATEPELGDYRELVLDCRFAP
# Chain of Macrophage-stimulating protein receptor (Q04912 310-1400 limits assumed): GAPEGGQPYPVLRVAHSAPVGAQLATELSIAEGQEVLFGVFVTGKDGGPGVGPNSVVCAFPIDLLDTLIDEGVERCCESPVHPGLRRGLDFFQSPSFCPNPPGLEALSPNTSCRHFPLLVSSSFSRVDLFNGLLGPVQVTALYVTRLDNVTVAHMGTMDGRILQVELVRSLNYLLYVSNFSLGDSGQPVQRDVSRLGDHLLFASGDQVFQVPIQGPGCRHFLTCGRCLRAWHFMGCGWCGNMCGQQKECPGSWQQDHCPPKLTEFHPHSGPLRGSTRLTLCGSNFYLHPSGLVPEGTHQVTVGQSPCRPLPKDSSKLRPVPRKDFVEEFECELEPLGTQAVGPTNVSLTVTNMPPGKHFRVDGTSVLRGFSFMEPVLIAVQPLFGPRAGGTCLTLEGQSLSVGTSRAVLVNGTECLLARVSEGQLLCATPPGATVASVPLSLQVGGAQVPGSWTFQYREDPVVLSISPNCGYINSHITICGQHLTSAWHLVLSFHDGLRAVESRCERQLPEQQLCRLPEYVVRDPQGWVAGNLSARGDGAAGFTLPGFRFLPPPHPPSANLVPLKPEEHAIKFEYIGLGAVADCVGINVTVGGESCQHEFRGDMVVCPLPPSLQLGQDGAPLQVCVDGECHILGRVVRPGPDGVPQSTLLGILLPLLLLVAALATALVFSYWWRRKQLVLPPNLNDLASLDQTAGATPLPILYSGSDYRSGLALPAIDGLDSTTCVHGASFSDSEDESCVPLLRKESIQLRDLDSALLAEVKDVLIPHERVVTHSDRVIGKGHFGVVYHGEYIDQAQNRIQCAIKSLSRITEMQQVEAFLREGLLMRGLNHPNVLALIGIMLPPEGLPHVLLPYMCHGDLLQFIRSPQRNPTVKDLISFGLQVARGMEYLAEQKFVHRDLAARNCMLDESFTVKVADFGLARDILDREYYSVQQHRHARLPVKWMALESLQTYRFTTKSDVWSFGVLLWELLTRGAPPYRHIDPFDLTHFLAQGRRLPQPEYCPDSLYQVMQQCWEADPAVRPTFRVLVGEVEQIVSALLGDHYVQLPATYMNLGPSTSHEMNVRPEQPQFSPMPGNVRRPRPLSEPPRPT
row,Ki,Structure (SMILES)
1,3.98 µM (active),Cc1ccc(C)c(NC(=O)c2cc(-c3ccco3)nc3ccccc23)c1
2,0.501 µM (active),COc1ccc(C2=NNc3cccc4c(OC)ccc2c34)cc1OC

row,Structure (SMILES),Ki
1,CN1CCC(c2c(O)cc(O)c3c(=O)cc(-c4ccccc4Cl)oc23)C(O)C1 (configuration not stated),> 3.98 µM (inactive)

# Target: Serine/threonine-protein kinase pim-1 (Homo sapiens, UniProt P11309)
# Assay type: functional
# Chain of Serine/threonine-protein kinase pim-1 (P11309 whole entry): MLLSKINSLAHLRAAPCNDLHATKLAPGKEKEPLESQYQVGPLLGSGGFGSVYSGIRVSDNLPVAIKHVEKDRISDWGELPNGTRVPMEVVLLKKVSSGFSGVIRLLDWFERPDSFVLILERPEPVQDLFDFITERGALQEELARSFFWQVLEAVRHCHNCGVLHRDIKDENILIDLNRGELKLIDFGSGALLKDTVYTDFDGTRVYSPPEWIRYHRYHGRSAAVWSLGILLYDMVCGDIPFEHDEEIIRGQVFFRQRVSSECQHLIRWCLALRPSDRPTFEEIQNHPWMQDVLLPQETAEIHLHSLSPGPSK
row,Ki,Structure (SMILES)
1,1.26 µM (active),Cc1ccc(C)c(NC(=O)c2cc(-c3ccco3)nc3ccccc23)c1
2,> 6.31 µM (inactive),COc1ccc(C2=NNc3cccc4c(OC)ccc2c34)cc1OC

row,Structure (SMILES),Ki
1,CN1CCC(c2c(O)cc(O)c3c(=O)cc(-c4ccccc4Cl)oc23)C(O)C1 (configuration not stated),0.794 µM (active)

# Target: Mitogen-activated protein kinase 9 (Homo sapiens, UniProt P45984);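 note: value from a kinome panel profiling assay, MAPK9 panel entry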
# Assay type: functional
# Chain of Mitogen-activated protein kinase 9 (P45984 whole entry): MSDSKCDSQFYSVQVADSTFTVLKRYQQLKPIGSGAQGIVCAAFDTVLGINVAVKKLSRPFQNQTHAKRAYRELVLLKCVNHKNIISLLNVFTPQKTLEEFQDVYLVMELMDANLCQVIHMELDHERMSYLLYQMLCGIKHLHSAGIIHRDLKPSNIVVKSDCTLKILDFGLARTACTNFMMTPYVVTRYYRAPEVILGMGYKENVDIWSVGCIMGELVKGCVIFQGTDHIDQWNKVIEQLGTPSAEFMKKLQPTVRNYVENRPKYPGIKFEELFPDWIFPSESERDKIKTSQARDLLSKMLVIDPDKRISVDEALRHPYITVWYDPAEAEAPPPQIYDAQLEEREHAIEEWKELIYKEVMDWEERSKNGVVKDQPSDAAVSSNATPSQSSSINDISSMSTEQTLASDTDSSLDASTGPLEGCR
row,Ki,Structure (SMILES)
1,> 3.98 µM (inactive),Cc1ccc(C)c(NC(=O)c2cc(-c3ccco3)nc3ccccc23)c1
2,3.16 µM (active),COc1ccc(C2=NNc3cccc4c(OC)ccc2c34)cc1OC

row,Structure (SMILES),Ki
1,CN1CCC(c2c(O)cc(O)c3c(=O)cc(-c4ccccc4Cl)oc23)C(O)C1 (configuration not stated),> 3.98 µM (inactive)

# Target: Platelet-derived growth factor receptor alpha (Homo sapiens, UniProt P16234)
# Assay: Navigating the Kinome. Panel member name: PDGFRA
# Assay type: functional
row,Ki,Structure (SMILES)
1,2 µM (active),Cc1ccc(C)c(NC(=O)c2cc(-c3ccco3)nc3ccccc23)c1
2,0.2 µM (active),COc1ccc(C2=NNc3cccc4c(OC)ccc2c34)cc1OC

row,Structure (SMILES),Ki
1,CN1CCC(c2c(O)cc(O)c3c(=O)cc(-c4ccccc4Cl)oc23)C(O)C1 (configuration not stated),> 2.51 µM (inactive)
